In patent US12679878B2, “CRF2 receptor agonists and their use in therapy” (SANOFI, priority 2020, dated 2026) one finds EC50 data, which are given here for 2 compounds.

The structures appear in SMILES notation. Like-named read-outs stand apart in the source and are kept apart here. Starred links: 1 amine or outer side, 2 acyl side, 3 side chain; linkers in the order of their positions; H or OH if unused. Non-standard residues stand in square brackets, D forms with d. Residues, ends and D or L forms follow the SMILES beside them. Groups on a side chain read outwards from the residue. *: point of attachment. C20 diacid = O=C(O)CCCCCCCCCCCCCCCCCCC(=O)*; C18 diacid = O=C(O)CCCCCCCCCCCCCCCCC(=O)*; γGlu = O=C(O)[C@H](CCC(=O)[*:2])N[*:1]; AEEA = NCCOCCOCC(=O)O; Aib = CC(C)(N)C(=O)O

For the experiment, the target named is T1, human CRF2α receptor (Homo sapiens, UniProt Q13324).
T1 construct: expressed in transfected cells; host or cells: TeloHEAC
T1 sequence (Q13324 1-411): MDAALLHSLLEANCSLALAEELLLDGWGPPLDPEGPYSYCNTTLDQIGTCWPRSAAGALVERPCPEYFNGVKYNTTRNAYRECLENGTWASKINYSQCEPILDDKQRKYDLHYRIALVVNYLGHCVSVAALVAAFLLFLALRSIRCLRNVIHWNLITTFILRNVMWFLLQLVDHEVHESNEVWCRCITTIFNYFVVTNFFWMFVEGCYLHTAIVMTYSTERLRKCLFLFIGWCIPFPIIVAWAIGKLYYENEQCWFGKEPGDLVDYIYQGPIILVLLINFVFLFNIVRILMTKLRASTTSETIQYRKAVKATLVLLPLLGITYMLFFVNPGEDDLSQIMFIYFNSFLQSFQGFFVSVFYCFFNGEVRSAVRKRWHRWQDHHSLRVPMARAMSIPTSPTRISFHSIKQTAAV
As to the kind of experiment: cAMP agonism at human CRF2 α receptor in TeloHEAC cells (Example 7). The experiment is classed as cell-based. As to conditions: cAMP HTRF, TeloHEAC cells stably expressing human CRF2 α. The method, boiled down: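 Steps: thaw and wash cells; suspend in 1×HBSS, 20 mM HEPES, 0 or 0.1% HSA, 2 mM IBMX; add compound, 30 min RT; lyse with HTRF reagents, 1 h; read 665/620 nm. EC50 calculated, E% versus 1000 nM UCN2.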
Background: In TR-FRET formats the signal depends on donor and acceptor labels being close together.

Setting [1] is: 0% HSA, read-out: EC50 [nM], 0% HSA.

In the case of `CC[C@H](C)[C@H](N)C(=O)N[C@H](C(=O)N[C@@H](CC(C)C)C(=O)N[C@@H](CO)C(=O)N[C@@H](CC(C)C)C(=O)N[C@@H](CC(=O)O)C(=O)N[C@H](C(=O)N1CCC[C@H]1C(=O)N[C@H](C(=O)NCC(=O)N[C@@H](CC(C)C)C(=O)N[C@@H](CCCCNC(=O)COCCOCCNC(=O)COCCOCCNC(=O)CC[C@H](NC(=O)CCCCCCCCCCCCCCCCC(=O)O)C(=O)O)C(=O)N[C@@H](CCC(N)=O)C(=O)N[C@H](C(=O)N[C@@H](CC(C)C)C(=O)N[C@@H](CC(C)C)C(=O)N[C@@H](CCC(=O)O)C(=O)N[C@@H](CCC(N)=O)C(=O)N[C@@H](CCC(=O)O)C(=O)N[C@@H](CCCCN)C(=O)N[C@@H](CCC(N)=O)C(=O)N[C@@H](CCC(=O)O)C(=O)N[C@@H](CCCCN)C(=O)N[C@@H](CCC(=O)O)C(=O)N[C@@H](CCCCN)C(=O)N[C@@H](CCC(N)=O)C(=O)N[C@@H](CCC(N)=O)C(=O)N[C@@H](C)C(=O)N[C@@H](CCC(=O)O)C(=O)N[C@@H](CCCCN)C(=O)N[C@@H](CC(N)=O)C(=O)N[C@@H](CCCCN)C(=O)N[C@@H](CCCNC(=N)N)C(=O)N[C@H](C(=O)N[C@@H](CC(C)C)C(=O)N[C@@H](CCC(=O)O)C(=O)N[C@@H](CCCNC(=N)N)C(=O)N[C@H](C(N)=O)C(C)C)[C@@H](C)CC)[C@@H](C)CC)[C@@H](C)CC)C(C)C)C(C)C` [compound 155] (H-IVLSLDVPIGLK([AEEA-AEEA-γGlu-C18 diacid])QILLEQEKQEKEKQQAEKNKRILERV-NH2), the EC50 (commonly the concentration needed to bring the measured effect to its halfway point) under setting [1] was determined as 8.87 nM.
Turning to `CC[C@H](C)[C@H](N)C(=O)N[C@H](C(=O)N[C@@H](CC(C)C)C(=O)N[C@@H](CO)C(=O)N[C@@H](CC(C)C)C(=O)N[C@@H](CC(=O)O)C(=O)N[C@@H](C(=O)N1CCC[C@H]1C(=O)N[C@H](C(=O)N[C@@H](CCCCN)C(=O)N[C@@H](CC(C)C)C(=O)N[C@@H](CCCCNC(=O)COCCOCCNC(=O)COCCOCCNC(=O)CC[C@H](NC(=O)CCCCCCCCCCCCCCCCCCC(=O)O)C(=O)O)C(=O)N[C@@H](CCC(N)=O)C(=O)N[C@H](C(=O)N[C@@H](CC(C)C)C(=O)N[C@@H](CC(C)C)C(=O)N[C@@H](CCCCN)C(=O)N[C@@H](CCC(N)=O)C(=O)N[C@@H](C)C(=O)N[C@@H](CCCNC(=N)N)C(=O)N[C@@H](CCC(N)=O)C(=O)N[C@@H](CCCCN)C(=O)NC(C)(C)C(=O)N[C@@H](CCC(N)=O)C(=O)N[C@@H](CCCNC(=N)N)C(=O)N[C@@H](C)C(=O)N[C@@H](CCC(N)=O)C(=O)N[C@@H](C)C(=O)N[C@@H](CCC(=O)O)C(=O)N[C@@H](CCCCN)C(=O)N[C@@H](CC(N)=O)C(=O)N[C@@H](CCCCN)C(=O)N[C@@H](CCCNC(=N)N)C(=O)N[C@H](C(=O)N[C@@H](CC(C)C)C(=O)N[C@@H](CCC(=O)O)C(=O)N[C@@H](CCCNC(=N)N)C(=O)N[C@H](C(N)=O)C(C)C)[C@@H](C)CC)[C@@H](C)CC)[C@@H](C)CC)C(C)C)C(C)C` [compound 175] (H-IVLSLD[dV]PIKLK([AEEA-AEEA-γGlu-C20 diacid])QILLKQARQK[Aib]QRAQAEKNKRILERV-NH2; N-terminus assumed), the EC50 is, setting by setting: under setting [1], 0.06 nM; (0.1% HSA, read-out: EC50 [nM], 0.1% HSA) 3.64 nM.
